Our source for the TGI and GI50 values is PubChem BioAssay (NCI).

Molecules are shown by their SMILES. “And” between values parts separate entries of the source, which are not always exact repeats. Equal values may be shown once.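 48-hour exposure; five concentrations; linearly interpolated endpoints. GI50 marks 50% less growth. At the TGI there is no net growth.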

Among the test systems are A498 renal; ACHN renal; HS 578T breast; IGROV1 ovarian; OVCAR-3 ovarian; SK-MEL-2 melanoma; SNB-19 CNS; T-47D breast; TK-10 renal; UACC-257 melanoma.
Assay in all cases: NCI-60 cell line screen, 48 h

As to `CN(C)CCNc1ccc2ncn3c4ccc(O)cc4c(=O)c1c23`, the TGI in the assay with A498 renal came to 8.04 µM; with ACHN renal, 4.6 µM; in the assay on HS 578T breast, 8.19 µM; in the assay on IGROV1 ovarian, 8.87 µM; with OVCAR-3 ovarian it was 13.4 µM; in the assay with SK-MEL-2 melanoma, 13 µM. Also, the TGI with SNB-19 CNS turned out to be 17.2 µM; in the assay with T-47D breast it was 25 µM; in the assay with TK-10 renal, 21.8 µM; with UACC-257 melanoma, 19.7 µM.

`COc1cc(CCC[P+](c2ccccc2)(c2ccccc2)c2ccccc2)c(OC)c2c1OCO2`: the GI50 was 1.41 µM with A498 renal; 4.07 µM in the assay with ACHN renal; 1.74 µM in the assay with HS 578T breast; 1 µM in the assay with IGROV1 ovarian; 0.633 µM with OVCAR-3 ovarian; 1.9 µM in the assay on SK-MEL-2 melanoma. In addition, the GI50 is 1.17 µM in the assay with SNB-19 CNS, 0.419 µM with T-47D breast, 4.05 µM in the assay on TK-10 renal and 0.378 µM with UACC-257 melanoma. Also, the TGI in the assay on A498 renal stood at 4.28 µM; in the assay on ACHN renal it was 21 µM; in the assay on HS 578T breast it was 8.54 µM; in the assay with IGROV1 ovarian it was 11.7 µM; in the assay with OVCAR-3 ovarian, 10.7 µM; with SK-MEL-2 melanoma it was 10.5 µM. The TGI in the assay on SNB-19 CNS was 10.9 µM; with T-47D breast, 14.7 µM; with TK-10 renal it was 23.3 µM; in the assay with UACC-257 melanoma, 6.44 µM.

In the case of `CCOC(=O)c1ccc(-n2cnc(-c3ccc([N+](=O)[O-])cc3)c2)cc1`, the TGI in the assay with A498 renal, in the assay on ACHN renal, in the assay with HS 578T breast, in the assay on IGROV1 ovarian, with OVCAR-3 ovarian and in the assay with SK-MEL-2 melanoma was more than 100 µM throughout. Further, the TGI with SNB-19 CNS, with T-47D breast, in the assay on TK-10 renal and in the assay on UACC-257 melanoma was more than 100 µM throughout.

As for `COC(=O)/C=C1/SC(=Nc2cccc(Cl)c2)N(CCc2c[nH]c3ccc(O)cc23)C1=O`, the GI50 is 1.73 µM in the assay on ACHN renal; 2.68 µM in the assay on HS 578T breast; 2 µM in the assay on IGROV1 ovarian; 1.54 µM with OVCAR-3 ovarian; 1.53 µM in the assay with SK-MEL-2 melanoma; 2.57 µM in the assay on SNB-19 CNS. In addition, the GI50 is 2.03 µM in the assay with T-47D breast, 2.29 µM in the assay with TK-10 renal and 1.96 µM with UACC-257 melanoma. For the same compound, the TGI was 3.33 µM with ACHN renal; 8.99 µM in the assay on HS 578T breast; 4.35 µM in the assay on IGROV1 ovarian; 3.23 µM in the assay with OVCAR-3 ovarian; 3.08 µM with SK-MEL-2 melanoma; 6.88 µM in the assay on SNB-19 CNS. Also, the TGI in the assay on T-47D breast was found to be 7.15 µM; in the assay on TK-10 renal, 5.65 µM; in the assay with UACC-257 melanoma, 3.99 µM.

In the case of `COc1cc(-n2ccnc2-c2ccc3ccccc3c2)cc(OC)c1OC`, the GI50 in the assay on A498 renal is 0.0451 µM; in the assay with ACHN renal, 2.6 µM; in the assay on HS 578T breast, 0.135 µM; with IGROV1 ovarian, 0.259 µM; in the assay with OVCAR-3 ovarian, 0.0288 µM; with SK-MEL-2 melanoma, 0.19 µM. Moreover, the GI50 was 0.131 µM in the assay on SNB-19 CNS, 0.633 µM with T-47D breast, 0.936 µM in the assay on TK-10 renal and 20 µM in the assay with UACC-257 melanoma. The TGI in the assay with A498 renal is 1.42 µM; in the assay with ACHN renal, 49 µM; in the assay with HS 578T breast it was 10.5 µM; in the assay with IGROV1 ovarian, more than 51.2 µM; in the assay on OVCAR-3 ovarian, 19.4 µM; in the assay on SK-MEL-2 melanoma, 26.9 µM. The TGI in the assay on SNB-19 CNS is more than 36.7 µM; in the assay on T-47D breast, 60.7 µM; with TK-10 renal, 45.2 µM; with UACC-257 melanoma, more than 100 µM.

Consider `Oc1ccccc1-c1nn(CNc2ccc(Cl)cc2)c(=S)o1`, for which the GI50 in the assay with A498 renal was more than 100 µM; in the assay with HS 578T breast, more than 100 µM; in the assay with IGROV1 ovarian, more than 100 µM; in the assay with OVCAR-3 ovarian it was 23.5 µM; with SK-MEL-2 melanoma it was more than 100 µM; in the assay on SNB-19 CNS, more than 100 µM. The GI50 with T-47D breast is 57 µM; with TK-10 renal, 1.53 µM; with UACC-257 melanoma, 20.6 µM. For the same compound, the TGI in the assay on A498 renal, in the assay on HS 578T breast, with IGROV1 ovarian, with OVCAR-3 ovarian, in the assay on SK-MEL-2 melanoma and with SNB-19 CNS was more than 100 µM each time. In addition, the TGI with T-47D breast was more than 100 µM; in the assay with TK-10 renal, more than 100 µM; in the assay on UACC-257 melanoma, 47.9 µM.

For the compound `O=C(O)Cc1cccc2c(=O)cc(-c3ccccc3)oc12`, the GI50 in the assay on A498 renal is 307 µM; in the assay on ACHN renal, 813 µM; with HS 578T breast it was 415 µM; in the assay with IGROV1 ovarian, 518 µM; in the assay with OVCAR-3 ovarian it was 568 µM; in the assay on SK-MEL-2 melanoma it was 844 µM. Also, the GI50 in the assay on SNB-19 CNS was more than 909 µM; with T-47D breast, 690 µM; in the assay on TK-10 renal, 990 µM; in the assay on UACC-257 melanoma, 614 µM. Moreover, the TGI was 250 µM and 979 µM in the assay with A498 renal; more than 1000 µM in the assay with ACHN renal; 209 µM and 889 µM with HS 578T breast; more than 1000 µM with IGROV1 ovarian; 250 µM and > 1000 µM with OVCAR-3 ovarian; 250 µM and > 1000 µM with SK-MEL-2 melanoma. Further, the TGI with SNB-19 CNS, in the assay on T-47D breast, in the assay on TK-10 renal and in the assay on UACC-257 melanoma was more than 1000 µM throughout.

Take `CC1=CCC2CC1C(C(=O)c1c[nH]c3ccccc13)=NC2(C)C` (configuration not stated): the TGI in the assay on A498 renal, with ACHN renal, in the assay on HS 578T breast, in the assay with IGROV1 ovarian, in the assay with OVCAR-3 ovarian and with SNB-19 CNS was more than 100 µM throughout. In addition, the figures for the TGI with T-47D breast and in the assay with UACC-257 melanoma were 99.2 µM and 93.4 µM, respectively.

For the compound `NCCCCC(NC(=O)C(N)CCCN=C(N)N)C(=O)NC(CCCCN)C(=O)NC(CCCN=C(N)N)C(=O)NC(CCCN=C(N)N)C(=O)NC(CCC(N)=O)C(=O)NC(CCCN=C(N)N)C(=O)NC(CCCN=C(N)N)C(=O)NC(CCCN=C(N)N)C(=O)NCC(=O)NCC(=O)O` (configuration not stated), the GI50 in the assay with A498 renal, with ACHN renal, in the assay on HS 578T breast, in the assay with IGROV1 ovarian, with OVCAR-3 ovarian and in the assay with SK-MEL-2 melanoma was more than 50 µM each time. The GI50 in the assay with SNB-19 CNS, in the assay with T-47D breast and in the assay with TK-10 renal was more than 50 µM throughout. The TGI in the assay with A498 renal, with ACHN renal, in the assay on HS 578T breast, in the assay on IGROV1 ovarian, in the assay on OVCAR-3 ovarian and with SK-MEL-2 melanoma was more than 50 µM each time. In addition, the TGI in the assay on SNB-19 CNS, with T-47D breast and in the assay on TK-10 renal was more than 50 µM each time.
